Patent US20050197350A1, “Novel quinoline, tetrahydroquinazoline, and pyrimidine derivatives and methods of treatment related to the use thereof” (TAISHO PHARMACEUTICAL CO., LTD., priority 2003, published 2005)

What follows are compounds tested on MCH receptors (assay: MCH receptor activity class (method not given)). Details: activity class 1-3: percent of control at 10^-7 M or IC50.
With `COc1ccccc1OC(=O)NC[C@H]1CC[C@@H](Nc2cc(N(C)C)c3ccccc3n2)CC1` [compound 1564] the class was 3 (Class 3 The value of percent of control at 10^−7 M was more than 60% or the value of IC50 was more than 200 nM.).
`COCCOC(=O)NC[C@H]1CC[C@@H](Nc2cc(N(C)C)c3ccccc3n2)CC1` [compound 1565] was tested, and the class was 3 (Class 3 The value of percent of control at 10^−7 M was more than 60% or the value of IC50 was more than 200 nM.).
In the case of `CCCCCCCCOC(=O)NC[C@H]1CC[C@@H](Nc2cc(N(C)C)c3ccccc3n2)CC1` [compound 1566], the class is reported as 3 (Class 3 The value of percent of control at 10^−7 M was more than 60% or the value of IC50 was more than 200 nM.).
`CCOC(=O)NC[C@H]1CC[C@@H](Nc2cc(N(C)C)c3ccccc3n2)CC1` [compound 1567] was tested, and the class was 3 (Class 3 The value of percent of control at 10^−7 M was more than 60% or the value of IC50 was more than 200 nM.).
For `CN(C)c1cc(N[C@H]2CC[C@@H](CNC(=O)OCc3ccc([N+](=O)[O-])cc3)CC2)nc2ccccc12` [compound 1568], the class was 3 (Class 3 The value of percent of control at 10^−7 M was more than 60% or the value of IC50 was more than 200 nM.).
In the case of `CN(C)c1cc(N[C@H]2CC[C@@H](CNC(=O)Oc3ccc4ccccc4c3)CC2)nc2ccccc12` [compound 1569], the class is reported as 3 (Class 3 The value of percent of control at 10^−7 M was more than 60% or the value of IC50 was more than 200 nM.).
For `C=CCOC(=O)NC[C@H]1CC[C@@H](Nc2cc(N(C)C)c3ccccc3n2)CC1` [compound 1570], the class was 3 (Class 3 The value of percent of control at 10^−7 M was more than 60% or the value of IC50 was more than 200 nM.).
With `CN(C)c1cc(N[C@H]2CC[C@@H](CNC(=O)OCc3ccccc3)CC2)nc2ccccc12` [compound 1571] the class was 3 (Class 3 The value of percent of control at 10^−7 M was more than 60% or the value of IC50 was more than 200 nM.).
For `CN(C)c1cc(N[C@H]2CC[C@@H](CNC(=O)Oc3ccccc3)CC2)nc2ccccc12` [compound 1572], the class was 3 (Class 3 The value of percent of control at 10^−7 M was more than 60% or the value of IC50 was more than 200 nM.).
With `CC(C)[C@@H]1CC[C@@H](C)C[C@H]1OC(=O)NC[C@H]1CC[C@@H](Nc2cc(N(C)C)c3ccccc3n2)CC1` [compound 1573] the class was 3 (Class 3 The value of percent of control at 10^−7 M was more than 60% or the value of IC50 was more than 200 nM.).
In the case of `Cc1ccc(OC(=O)NC[C@H]2CC[C@@H](Nc3cc(N(C)C)c4ccccc4n3)CC2)cc1` [compound 1574], the class is reported as 3 (Class 3 The value of percent of control at 10^−7 M was more than 60% or the value of IC50 was more than 200 nM.).
With `COC(=O)NC[C@H]1CC[C@@H](Nc2cc(N(C)C)c3ccccc3n2)CC1` [compound 1575] the class was 3 (Class 3 The value of percent of control at 10^−7 M was more than 60% or the value of IC50 was more than 200 nM.).
With `CN(C)c1cc(N[C@H]2CC[C@@H](CNC(=O)OCc3ccccc3Cl)CC2)nc2ccccc12` [compound 1576] the class was 3 (Class 3 The value of percent of control at 10^−7 M was more than 60% or the value of IC50 was more than 200 nM.).
In the case of `CN(C)c1cc(N[C@H]2CC[C@@H](CNC(=O)OCC3c4ccccc4-c4ccccc43)CC2)nc2ccccc12` [compound 1577], the class is reported as 3 (Class 3 The value of percent of control at 10^−7 M was more than 60% or the value of IC50 was more than 200 nM.).
In the case of `CN(C)c1cc(N[C@H]2CC[C@@H](CNC(=O)OCC(Cl)(Cl)Cl)CC2)nc2ccccc12` [compound 1578], the class is reported as 3 (Class 3 The value of percent of control at 10^−7 M was more than 60% or the value of IC50 was more than 200 nM.).
For `CN(C)c1nc(N[C@H]2CC[C@@H](NC(=O)OCCOCc3ccccc3)CC2)nc2c1CCCC2` [compound 1579], the class was 3 (Class 3 The value of percent of control at 10^−7 M was more than 60% or the value of IC50 was more than 200 nM.).
For `CN(C)c1nc(N[C@H]2CC[C@@H](NC(=O)OCC(C)(C)C)CC2)nc2c1CCCC2` [compound 1580], the class was 3 (Class 3 The value of percent of control at 10^−7 M was more than 60% or the value of IC50 was more than 200 nM.).
For `COc1cc(COC(=O)NC2CCC(Nc3nc4c(c(N(C)C)n3)CCCC4)CC2)c([N+](=O)[O-])cc1OC` (stereo not drawn) [compound 1581, [4-(4-Dimethylamino-5,6,7,8-tetrahydro-quinazolin-2-ylamino)-cyclohexy]-carbamic acid 4,5-dimethoxy-2-nitro-benzyl ester], the class was 2 (Class 2: The value of percent of control at 10^−7 M was from 40% to 60% or the value of IC′50 was from 50 nM to 200 nM.).
With `CN(C)c1nc(N[C@H]2CC[C@@H](NC(=O)Oc3cccc(C(F)(F)F)c3)CC2)nc2c1CCCC2` [compound 1582] the class was 3 (Class 3 The value of percent of control at 10^−7 M was more than 60% or the value of IC50 was more than 200 nM.).
`CN(C)c1nc(N[C@H]2CC[C@@H](NC(=O)Oc3ccc(Br)cc3)CC2)nc2c1CCCC2` [compound 1583] was tested, and the class was 3 (Class 3 The value of percent of control at 10^−7 M was more than 60% or the value of IC50 was more than 200 nM.).
In the case of `COc1ccccc1OC(=O)N[C@H]1CC[C@@H](Nc2nc3c(c(N(C)C)n2)CCCC3)CC1` [compound 1584], the class is reported as 3 (Class 3 The value of percent of control at 10^−7 M was more than 60% or the value of IC50 was more than 200 nM.).
In the case of `COCCOC(=O)N[C@H]1CC[C@@H](Nc2nc3c(c(N(C)C)n2)CCCC3)CC1` [compound 1585], the class is reported as 3 (Class 3 The value of percent of control at 10^−7 M was more than 60% or the value of IC50 was more than 200 nM.).
For `CCCCCCCCOC(=O)N[C@H]1CC[C@@H](Nc2nc3c(c(N(C)C)n2)CCCC3)CC1` [compound 1586], the class was 3 (Class 3 The value of percent of control at 10^−7 M was more than 60% or the value of IC50 was more than 200 nM.).
For `CCOC(=O)N[C@H]1CC[C@@H](Nc2nc3c(c(N(C)C)n2)CCCC3)CC1` [compound 1587], the class was 3 (Class 3 The value of percent of control at 10^−7 M was more than 60% or the value of IC50 was more than 200 nM.).
`CN(C)c1nc(N[C@H]2CC[C@@H](NC(=O)OCc3ccc([N+](=O)[O-])cc3)CC2)nc2c1CCCC2` [compound 1588] was tested, and the class was 3 (Class 3 The value of percent of control at 10^−7 M was more than 60% or the value of IC50 was more than 200 nM.).
`CN(C)c1nc(N[C@H]2CC[C@@H](NC(=O)Oc3ccc4ccccc4c3)CC2)nc2c1CCCC2` [compound 1589] was tested, and the class was 3 (Class 3 The value of percent of control at 10^−7 M was more than 60% or the value of IC50 was more than 200 nM.).
With `C=CCOC(=O)N[C@H]1CC[C@@H](Nc2nc3c(c(N(C)C)n2)CCCC3)CC1` [compound 1590] the class was 3 (Class 3 The value of percent of control at 10^−7 M was more than 60% or the value of IC50 was more than 200 nM.).
With `CN(C)c1nc(N[C@H]2CC[C@@H](NC(=O)OCc3ccccc3)CC2)nc2c1CCCC2` [compound 1591] the class was 3 (Class 3 The value of percent of control at 10^−7 M was more than 60% or the value of IC50 was more than 200 nM.).
For `CN(C)c1nc(N[C@H]2CC[C@@H](NC(=O)Oc3ccccc3)CC2)nc2c1CCCC2` [compound 1592], the class was 3 (Class 3 The value of percent of control at 10^−7 M was more than 60% or the value of IC50 was more than 200 nM.).
For `CC(C)[C@@H]1CC[C@@H](C)CC1OC(=O)N[C@H]1CC[C@@H](Nc2nc3c(c(N(C)C)n2)CCCC3)CC1` (stereo partly drawn) [compound 1593], the class was 3 (Class 3 The value of percent of control at 10^−7 M was more than 60% or the value of IC50 was more than 200 nM.).
For `Cc1ccc(OC(=O)N[C@H]2CC[C@@H](Nc3nc4c(c(N(C)C)n3)CCCC4)CC2)cc1` [compound 1594], the class was 3 (Class 3 The value of percent of control at 10^−7 M was more than 60% or the value of IC50 was more than 200 nM.).
With `COC(=O)N[C@H]1CC[C@@H](Nc2nc3c(c(N(C)C)n2)CCCC3)CC1` [compound 1595] the class was 3 (Class 3 The value of percent of control at 10^−7 M was more than 60% or the value of IC50 was more than 200 nM.).
`CN(C)c1nc(N[C@H]2CC[C@@H](NC(=O)OCc3ccccc3Cl)CC2)nc2c1CCCC2` [compound 1596] was tested, and the class was 3 (Class 3 The value of percent of control at 10^−7 M was more than 60% or the value of IC50 was more than 200 nM.).
`CN(C)c1nc(N[C@H]2CC[C@@H](NC(=O)OCC3c4ccccc4-c4ccccc43)CC2)nc2c1CCCC2` [compound 1597] was tested, and the class was 3 (Class 3 The value of percent of control at 10^−7 M was more than 60% or the value of IC50 was more than 200 nM.).
In the case of `CN(C)c1nc(N[C@H]2CC[C@@H](NC(=O)OCC(Cl)(Cl)Cl)CC2)nc2c1CCCC2` [compound 1598], the class is reported as 3 (Class 3 The value of percent of control at 10^−7 M was more than 60% or the value of IC50 was more than 200 nM.).
For `CN(C)c1nc(N[C@H]2CC[C@@H](CNC(=O)OCCOCc3ccccc3)CC2)nc2c1CCCC2` [compound 1599], the class was 3 (Class 3 The value of percent of control at 10^−7 M was more than 60% or the value of IC50 was more than 200 nM.).
In the case of `CN(C)c1nc(N[C@H]2CC[C@@H](CNC(=O)OCC(C)(C)C)CC2)nc2c1CCCC2` [compound 1600], the class is reported as 3 (Class 3 The value of percent of control at 10^−7 M was more than 60% or the value of IC50 was more than 200 nM.).
`COc1cc(COC(=O)NC[C@H]2CC[C@@H](Nc3nc4c(c(N(C)C)n3)CCCC4)CC2)c([N+](=O)[O-])cc1OC` [compound 1601] was tested, and the class was 3 (Class 3 The value of percent of control at 10^−7 M was more than 60% or the value of IC50 was more than 200 nM.).
With `CN(C)c1nc(N[C@H]2CC[C@@H](CNC(=O)Oc3cccc(C(F)(F)F)c3)CC2)nc2c1CCCC2` [compound 1602] the class was 3 (Class 3 The value of percent of control at 10^−7 M was more than 60% or the value of IC50 was more than 200 nM.).
For `CN(C)c1nc(N[C@H]2CC[C@@H](CNC(=O)Oc3ccc(Br)cc3)CC2)nc2c1CCCC2` [compound 1603], the class was 3 (Class 3 The value of percent of control at 10^−7 M was more than 60% or the value of IC50 was more than 200 nM.).
In the case of `COc1ccccc1OC(=O)NC[C@H]1CC[C@@H](Nc2nc3c(c(N(C)C)n2)CCCC3)CC1` [compound 1604], the class is reported as 3 (Class 3 The value of percent of control at 10^−7 M was more than 60% or the value of IC50 was more than 200 nM.).
For `COCCOC(=O)NC[C@H]1CC[C@@H](Nc2nc3c(c(N(C)C)n2)CCCC3)CC1` [compound 1605], the class was 3 (Class 3 The value of percent of control at 10^−7 M was more than 60% or the value of IC50 was more than 200 nM.).
